Assay [1] has as its system renal proximal tubule cells. As to the kind of experiment: In-vitro mitochondrial biogenesis dose response (FCCP-uncoupled OCR, Seahorse). The format is cell-based. Particulars: Oryctolagus cuniculus; rabbit renal proximal tubule cells, 24 h incubation, uncoupled OCR normalized to vehicle, Hill fit, N=4-6. As to the method:
OCRs were measured using a Seahorse Bioscience analyzer (North Billerica, Mass.) before (basal) and after addition of […] FCCP, an ionophore that uncouples electron transport from ATP generation. The selective 5-HT1F receptor agonists LY334370 (4-fluoro-N-[3-(1-methyl-4-piperidinyl)-1H-indol-5-yl]benzamide) and LY344864 (N-[(3R)-3-(dimethylamino)-2,3,4,9-tetrahydro-1H-carbazol-6-yl]-4-fluorobenzamide), and the nonselective 5-HT receptor agonist a-methyl 5-HT were purchased from Tocris (Ellisville, Mo.).
In-vitro mitochondrial biogenesis dose responses (reported as EC50 values) were determined from a modification of the assay described in Example 21. […] Compounds were incubated at different doses with renal cells for 24 h after which their basal respiration and elevated FCCP-induced uncoupled oxygen consumption rates (OCRs) were measured using a Seahorse Bioscience analyzer (Beeson et al., 2010). Uncoupled OCRs were normalized to vehicle control OCRs and the rates that decrease at high concentrations of drug were eliminated. The remaining dose-dependent responses were fit to a standard Hill equation using non-linear regression to obtain the EC50 values for replicates of N=4-6 where N is the number of individual rabbit renal cell isolations tested for each compound.

For assay [2], the system named is RPTC. The settings on record: cited from earlier work; for maximal mitochondrial respiration / mitochondrial proteins (ATP synthase β, Cox1, NDUFB8): RPTC, 1-100 nM.
The subject of assay [3] is podocytes (1-1P4G5 podocyte clone). As to the kind of experiment: Podocyte mitochondrial biogenesis (FCCP-uncoupled oxygen consumption rate). The format is cell-based. Particulars: Mus musculus; differentiated podocytes, FCCP 1 μM uncoupled rate normalized to vehicle, Hill fit. The procedure: Fully differentiated podocytes were assayed using increased mitochondrial reserve capacity (measured as FCCP-uncoupled oxygen consumption rate) as a measure of mitochondrial biogenesis.
For these studies the 1-1P4G5 podocyte clone developed in the Kopp lab at the NIH were used. (25) These cells expressed a SV40-driven temperature sensitive T antigen that enabled the cells to proliferate in an undifferentiated state at the permissive temperature of 33° C. and then after 5 days of culture at 37° C. the cells are fully differentiated as mature podocytes. The differentiated cells were maintained in Advanced RPMI 1640 with 10% fetal calf serum and then plated at 1.5 million cells/96-well Seahorse plate for 48 h prior to treatment with test compound, vehicle control (VC) or validated 5-HT1F agonists. The plates were then transferred to a Seahorse XF96 Instrument during which basal and FCCP-uncoupled rates were measured (the [FCCP]=1 μM). Drugs were treated at a range of 1 nM, 10 nM, 100 nM, 500 nM, and 1 μM and the uncoupled rates were normalized to vehicle control, <0.2% DMSO in media. The doses responses were fit to a Hill function and the EC50 values were calculated from the non-linear regression.

Assay [4] concerns murine model of glomerular disease. Description: Nephrotoxic serum (NTS) induced chronic kidney disease model, albuminuria. In kind it is in vivo, mouse. The settings on record: C57/BL mice, 2 mg/kg once per day, FIG. 1. From the text: Renal dysfunction was modeled in mice using the nephrotoxic serum (NTS) induced model. The classical Adriamycin model for glomerular studies relies critically on dosing profiles, has resistance in some murine species, off-target effects in others, and required days (10 days) instead of hours for observable albuminuria (marker for renal compromise, determined by urine collection) compared to the NTS counterpart. (Mallipattu, S. K.; He, J. C. Am. J. Physiol. Renal Physiol. 2016, 311, F46-F51; Pippin, J. W.; Brinkkoetter, P. T.; Cormack-Aboud, F. C.; Durvasula, R. V.; Hauser, P. V.; Kowalewska, J.; Krofft, R. D.; Logar, C. M.; Marshall, C. B.; Ohse, T.; Shankland, S. J. Am. J. Physiol. Renal Physiol. 2009, 296, F213-F229). Conversely, the NTS model is quick onset (4 h) and has wide species reproducibility.
In this experiment, induction of the nephrotoxic serum (NTS) model ([…] injection) for glomerular decline was performed using C57/BL mice (15 mice total).
Urine albumin/creatinine ratios were measured in control (NTS+vehicle) and drug treated mice (NTS+drug (example 6) for pre-injection, day 2, day 6, day 12 and day 14. Drug was administered once per day at 2 mg/kg. Thus, it is expected that the compounds of the invention are useful to treat chronic kidney disease.

Assay [5] has as its system murine renal cortex, heart, and liver. The settings on record: cited from earlier work.
Assay [6] relates to ischemia/reperfusion-induced AKI. The settings on record: following ischemia/reperfusion-induced AKI; cited from earlier work.

As usually defined, the EC50 is the concentration at which the effect is half-maximal. A higher EC50 goes with a less potent agent. Turning to `COCC(=O)N1CCc2ccc(NC(=O)c3cccc(Br)c3)cc21` [Example 20, 3-bromo-N-(1-(2-methoxyacetyl)indolin-6-yl)benzamide], the EC50 in assay [1] was found to be 20 pM.

Take `CN1CCC(c2c[nH]c3ccc(NC(=O)c4ccc(F)cc4)cc23)CC1` [LY334370, 4-fluoro-N-[3-(1-methyl-4-piperidinyl)-1H-indol-5-yl]benzamide]: in assay [2], the maximal mitochondrial respiration result is recorded as “increased” and the “mitochondrial proteins (ATP synthase β, Cox1, NDUFB8)” value is reported as “increased”.

Take `COCCNC(=O)c1cnc2ccc(NCCOC)cn2c1=O` [Example 2, N-(2-methoxyethyl)-7-((2-methoxyethyl)amino)-4-oxo-4H-pyrido[1,2-a]pyrimidine-3-carboxamide]: it took 20 pM to reach a half-maximal effect in assay [1] (EC50).

For the compound `CN(C)CC(=O)N1CCc2ccc(NS(=O)(=O)c3ccccc3)cc21` [Example 25, N-(1-(dimethylglycyl)indolin-6-yl)benzenesulfonamide], in assay [3], the EC50 worked out at 200 pM.

In turn, `CN1CCN(C(=O)c2cccc(Nc3nc4ccccc4[nH]3)n2)CC1` [Example 10, (6-((1H-benzo[d]imidazol-2-yl)amino)pyridin-2-yl)(4-methylpiperazin-1-yl)methanone] returned a concentration giving a half-maximal response (EC50) in assay [1] of 200 pM.

With `CN1CCC(C(=O)c2cccc(NC(=O)c3c(F)cc(F)cc3F)n2)CC1` [Example 24, 2,4,6-trifluoro-N-(6-(1-methylpiperidine-4-carbonyl)pyridin-2-yl)benzamide, reference compound], the figures for the EC50 in assay [1] and in assay [3] were 600 pM and 20000 pM, respectively.

As to `COCC(=O)N1CCc2ccc(N(S(=O)(=O)c3ccccc3)S(=O)(=O)c3ccccc3)cc21` [Example 19, N-(1-(2-methoxyacetyl)indolin-6-yl)-N-(phenylsulfonyl)benzenesulfonamide], the half-maximal effective concentration (EC50) in assay [1] amounted to 2000 pM; in assay [3] it was 20000 pM.

With `COc1cc(CC(C)N)c(OC)cc1I.Cl` (stereo not shown) [DOT, 1-(2,5-dimethoxy-4-iodophenyl)-2-aminopropane hydrochloride], in assay [2] (renal proximal tubular cells, following oxidant injury), the “recovery of mitochondrial function” value is “accelerated the recovery of mitochondrial function”. Also, in assay [2] (renal proximal tubular cells), the “induction of MB” value is reported as “potent inducer of MB”.

Compound `COCC(=O)N1CCc2ccc(NC(=O)c3cc(F)cc(F)c3)cc21` [Example 17, 3,5-difluoro-N-(1-(2-methoxyacetyl)indolin-6-yl)benzamide] gave an EC50 in assay [1] of 20 pM.

`CN1CCN(C(=O)c2cccc(NC(=O)N(C)C)n2)CC1` [Example 9, 1,1-dimethyl-3-(6-(4-methylpiperazine-1-carbonyl)pyridin-2-yl)urea] gave an EC50 in assay [1] of 200 pM.

As for `COc1cc(OC)c2ncc(C(=O)N3CCN(C)CC3)c(O)c2c1` [Example 5, (4-hydroxy-6,8-dimethoxyquinolin-3-yl)(4-methylpiperazin-1-yl)methanone], the EC50 is 1000 pM in assay [1] and 100000 pM in assay [3].

In the case of `CN1CCN(C(=O)c2cccc(NC(=O)c3c(F)cc(F)cc3F)n2)CC1` [Example 6, 2,4,6-trifluoro-N-(6-(4-methylpiperazine-1-carbonyl)pyridin-2-yl)benzamide], the values for the concentration for a half-maximal effect (EC50) in assay [1] and in assay [3] were 2000 pM and 100000 pM, respectively. For the same compound, the “albuminuria (urine albumin/creatinine ratio)” value in assay [4] is recorded as “attenuated albuminuria”.

In turn, `Cc1ccc(S(=O)(=O)Nc2cccc(C(=O)N3CCN(C)CC3)n2)cc1` [Example 8, 4-methyl-N-(6-(4-methylpiperazine-1-carbonyl)pyridin-2-yl)benzenesulfonamide] gave an EC50 in assay [1] of 200 pM.

In assay [1], `COCCNC(=O)c1cnc(N)n(CCOC)c1=O` [Example 3, 2-amino-N,1-bis(2-methoxyethyl)-6-oxo-1,6-dihydropyrimidine-5-carboxamide] yielded an EC50 of 20000 pM.

`O=C(Nc1ccc2c(c1)N(C(=O)CN1CCOCC1)CC2)c1ccccc1` [Example 27, N-(1-(2-morpholinoacetyl)indolin-6-yl)benzamide] showed an EC50 in assay [3] of 20000 pM.

Consider `COCC(=O)N1CCc2ccc(Nc3nc4ccccc4o3)cc21` [Example 12, 1-(6-(benzo[d]oxazol-2-ylamino)indolin-1-yl)-2-methoxyethan-1-one], for which the response in assay [1] was half-maximal at 2000 pM (EC50).

The compound `CN1CCN(C(=O)c2cccc(NC(=O)c3ccccc3)n2)CC1` [Example 11, N-(6-(4-methylpiperazine-1-carbonyl)pyridin-2-yl)benzamide] gave an EC50 in assay [1] of 2000 pM.

Turning to `COCCNC(=O)c1cnc2c(OC)cc(OC)cc2c1O` [Example 4, 4-hydroxy-6,8-dimethoxy-N-(2-methoxyethyl)quinoline-3-carboxamide], the half-maximal effective concentration (EC50) in assay [1] stood at 2000 pM; in assay [3], 20000 pM.

`COCCNC(=O)c1cnc2ccc(OC)cn2c1=O` [Example 1, 7-methoxy-N-(2-methoxyethyl)-4-oxo-4H-pyrido[1,2-a]pyrimidine-3-carboxamide] displayed an EC50 in assay [1] of 20 pM.

`COCC(=O)N1CCc2ccc(Nc3nc4ccccc4[nH]3)cc21` [Example 14, 1-(6-((1H-benzo[d]imidazol-2-yl)amino)indolin-1-yl)-2-methoxyethan-1-one] returned an EC50 in assay [1] of 20 pM.

Consider `CN(C)[C@@H]1CCc2[nH]c3ccc(NC(=O)c4ccc(F)cc4)cc3c2C1` [LY344864, N-[(3R)-3-(dimethylamino)-2,3,4,9-tetrahydro-1H-carbazol-6-yl]-4-fluorobenzamide], for which the “PGC-1α, Cox1 and NDUFB8 transcript levels and mtDNA copy number” value in assay [5] was “increased”. In addition, the “recovery of renal function (BUN, KIM-1, mtDNA copy number)” value in assay [6] is recorded as “accelerated recovery of renal function”. In assay [2], the maximal mitochondrial respiration entry was “increased” and the “mitochondrial proteins (ATP synthase β, Cox1, NDUFB8)” value is “increased”.

`COCC(=O)N1CCc2ccc(NC(=O)c3ccc(F)c(F)c3)cc21` [Example 15, 3,4-difluoro-N-(1-(2-methoxyacetyl)indolin-6-yl)benzamide] returned a 50% effective concentration (EC50) in assay [1] of 200 pM.

`COCC(=O)N1CCc2ccc(N(C)C(=O)c3c(F)cc(F)cc3F)cc21` [Example 16, 2,4,6-trifluoro-N-(1-(2-methoxyacetyl)indolin-6-yl)-N-methylbenzamide] returned a concentration for a half-maximal effect (EC50) in assay [1] of 2 pM.

Consider `CN1CCCN(C(=O)c2cccc(NC(=O)c3c(F)cc(F)cc3F)n2)CC1` [Example 7, 2,4,6-trifluoro-N-(6-(4-methyl-1,4-diazepane-1-carbonyl)pyridin-2-yl)benzamide], for which the EC50 in assay [1] came to 200 pM.

`COCC(=O)N1CCc2ccc(NC(=O)c3ccc(F)cc3F)cc21` [Example 13, 2,4-difluoro-N-(1-(2-methoxyacetyl)indolin-6-yl)benzamide] came in with a concentration giving a half-maximal response (EC50) in assay [1] of 20 pM.

In assay [3], `CCN(CC)CC(=O)N1CCc2ccc(NC(=O)c3ccccc3)cc21` [Example 26, N-(1-(diethylglycyl)indolin-6-yl)benzamide] registered an EC50 of 20000 pM.

The values are drawn from patent US11939301B2, “5HT1F receptor agonists and mitochondrial biogenesis” (MUSC FOUNDATION FOR RESEARCH DEVELOPMENT, priority 2016, dated 2024).
